Experimental data as given in patent US20260256799A1, “INHIBITORS FOR TREATING SOLID TUMOURS” (UNIVERSITY OF SOUTHAMPTON, priority 2023, published 2026).

Test system: MLF
Assay: TGF-β1-induced myofibroblast differentiation of mouse lung fibroblasts
Assay type: cell-based
Procedure: Human NSCLC cell line H441, HNSCC SCC25, murine cancer cell line TC-1 (lung), MC38 (colon) and human fetal foreskin fibroblasts HFFF2 were purchased from European Collection of Cell Cultures (Public Health England) or ATCC; HNSCC 5PT [32] were provided by l. Mackenzie (Queen Mary University of London, UK). HEK-293T cells and IMR90 lung fibroblasts were provided by Jesus Gil (Imperial College, London, UK). SCC25 were grown in Ham's F12:DMEM (1:1 ratio) medium with 10% FBS (Calbiochem) and 292 μg/ml L-Glutamine. 5PT were cultured in keratinocyte growth medium. HEK-293T, H441, MC38, HFFF2, IMR90 and primary fibroblasts were grown in DMEM supplemented with 10% FBS and 292 μg/ml L-Glutamine. Primary fibroblasts were isolated as previously used at early passage (p1-10). C57BL/6 murine normal lung and colon fibroblasts (MLF and MCF respectively) were grown at 3% oxygen. TC-1 were cultured in RPMI supplemented with 10% FBS and 292 μg/ml L-Glutamine. All cell cultures were routinely tested for mycoplasma contamination. All cells were cultured using standard cell culture plates/flasks (Corning). HFFF2 or IMR90 cells were transfected with 25 μM On-Target pool siRNA (Thermo Scientific/Dharmacon) using Oligofectamine reagent (Life Technologies) as described. Stable knockdown was performed using retro/lentiviral mediated transduction of shRNA plasmids, as previously described followed by cell selection using 1 μg/ml puromycin for 5-7 days. NOX4-inducible HEK-293 cells (kindly provided by Vincent Jaquet) were treated with 1 μg/ml doxycycline. […]
5×10^3 HFFF2 were plated on permanox chamber slides (Thermo Scientific) and treated as described in the figure legends. […] Images were taken using an Olympus IX81 fluorescence microscope and Xcellence program. DNA Damage foci were quantified from at least 8 non-overlapping FoV with ~300 cells in total per condition. […] SMA and Collagen 1A1 quantification was performed using Fiji. […]

[1] = AZD0156 0.5 μM + TGF-β1 for a week, Q-RT-PCR

CN(C)CCCOc1ccc(-c2ccc3ncc4c(c3c2)n(C2CCOCC2)c(=O)n4C)cn1 [AZD0156]
myofibroblast differentiation in vitro (AZD0156 0.5 μM + TGF-β1, 72 hours (Western) or 7 days (Collagen1, Fibronectin)): suppressed | effect on iCAF genes [1]: gene-specific and generally non-significant | myoCAF genes expression [1]: significantly down-regulated
